Experimental data published in PubChem BioAssay AID1259411 (Chemical Carcinogenesis Research Information System (CCRIS), 2018).
Calls of active or inactive are those of the source. The rule behind the calls is not given here.

Tested on: rodent carcinogenicity bioassays, tumor incidence
Assay: CCRIS carcinogenicity studies
How it was run: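 NCI-built, expert-reviewed records of carcinogenicity and related test outcomes (mutagenicity, tumor promotion/inhibition) compiled from published and report sources, historical span 1985-2011, not updated.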

For `NS(=O)(=O)c1cc(C(=O)O)c(NCc2ccco2)cc1Cl`, the carcinogen call (Species: MOUSE, Strain/Sex: B6C3F1/FEMALE, Route: ORAL, Dose: 0, 700, 1400 PPM IN FEED FOR 104 WK (STUDY DURATION: 107 WK), Dose: 0, 700, 1400 PPM IN FEED FOR 104 WK (STUDY DURATION: 107 WK), Tumor Site: Type of Lesion: MAMMARY GLAND: MIXED TUMOR, MALIGNANT, MAMMARY GLAND: MIXED TUMOR, MALIGNANT OR ACINAR CELL CARCINOMA) was “active; positive”, the carcinogen call (Species: MOUSE, Strain/Sex: B6C3F1/MALE, Route: ORAL, Dose: 0, 700, 1400 PPM IN FEED FOR 104 WK (STUDY DURATION: 107 WK), Dose: 0, 700, 1400 PPM IN FEED FOR 104 WK (STUDY DURATION: 107 WK)) was “inactive; negative” and the carcinogen call (Species: RAT, Strain/Sex: F344/FEMALE, Route: ORAL, Dose: 0, 350, 700 PPM IN FEED FOR 103 WK (STUDY DURATION: 106 WK), Dose: 0, 350, 700 PPM IN FEED FOR 103 WK (STUDY DURATION: 106 WK)) was “inactive; negative”. For the same compound, the carcinogen call (Species: RAT, Strain/Sex: F344/MALE, Route: ORAL, Dose: 0, 350, 700 PPM IN FEED FOR 103 WK (STUDY DURATION: 106 WK), Dose: 0, 350, 700 PPM IN FEED FOR 103 WK (STUDY DURATION: 106 WK), Tumor Site: Type of Lesion: KIDNEY: RENAL TUBULE CELL ADENOMA OR ADENOCARCINOMA, BRAIN: MENINGIOMA) was “equivocal”.

`CCN(CC)c1ccc(C(=C2C=CC(=[N+](CC)CC)C=C2)c2ccc(S(=O)(=O)O)cc2S(=O)(=O)[O-])cc1` was tested, and the carcinogen call (Species: RAT, Route: SUBCUTANEOUS, INTRAMUSCULAR, Tumor Site: Type of Lesion: INJECTION SITE) was “active; positive”.

`CCCCCCC(=O)O[C@H]1CC[C@H]2[C@@H]3CCC4=CC(=O)CC[C@]4(C)[C@H]3CC[C@]12C` was tested, and the carcinogen call (Species: RAT, Strain/Sex: WISTAR/FEMALE, Route: INTRAMUSCULAR, Dose: 0, 12.5 MG 1/WK FOR 24 WK (STUDY DURATION: 24 WK), Tumor Site: Type of Lesion: BLADDER: PAPILLOMA OR CARCINOMA) was “active; positive” and the carcinogen call (Species: RAT, Strain/Sex: WISTAR/FEMALE, Route: INTRAMUSCULAR, Dose: 0, 12.5 MG 1/WK FOR 24 WK ADMINISTERED TO OOPHORECTOMIZED RATS (STUDY DURATION: 24 WK)) was “inactive; negative”.

In the case of `CCCCC(CC)CO` (stereo not drawn), the carcinogen call (Species: MOUSE, Strain/Sex: B6C3F1/FEMALE, Route: GAVAGE, Dose: 0, 50, 200, 750 MG/KG/D 5 D/WK FOR 18 MO (STUDY DURATION: 18 MO), Dose: 0, 50, 200, 750 MG/KG/D 5 D/WK FOR 18 MO (STUDY DURATION: 18 MO)) is reported as “inactive; negative”, the carcinogen call (Species: MOUSE, Strain/Sex: B6C3F1/MALE, Route: GAVAGE, Dose: 0, 50, 200, 750 MG/KG/D 5 D/WK FOR 18 MO (STUDY DURATION: 18 MO), Dose: 0, 50, 200, 750 MG/KG/D 5 D/WK FOR 18 MO (STUDY DURATION: 18 MO)) is reported as “inactive; negative” and the carcinogen call (Species: RAT, Strain/Sex: F344/FEMALE, Route: GAVAGE, Dose: 0, 50, 150, 500 MG/KG/D 5 D/WK FOR 24 MO (STUDY DURATION: 24 MO), Dose: 0, 50, 150, 500 MG/KG/D 5 D/WK FOR 24 MO (STUDY DURATION: 24 MO)) is reported as “inactive; negative”. The carcinogen call (Species: RAT, Strain/Sex: F344/MALE, Route: GAVAGE, Dose: 0, 50, 150, 500 MG/KG/D 5 D/WK FOR 24 MO (STUDY DURATION: 24 MO), Dose: 0, 50, 150, 500 MG/KG/D 5 D/WK FOR 24 MO (STUDY DURATION: 24 MO)) was “inactive; negative”.

`ClC(Br)Br` was tested, and the carcinogen call (Species: MOUSE, Strain/Sex: B6C3F1/FEMALE, Route: GAVAGE, Dose: 0, 50, 100 MG/KG IN CORN OIL 5 D/WK FOR 105 WK (STUDY DURATION: 105 WK), Dose: 0, 50, 100 MG/KG IN CORN OIL 5 D/WK FOR 105 WK (STUDY DURATION: 105 WK), Tumor Site: Type of Lesion: LIVER: HEPATOCELLULAR ADENOMA, HEPATOCELLULAR ADENOMA OR CARCINOMA) was “active; positive”, the carcinogen call (Species: MOUSE, Strain/Sex: B6C3F1/MALE, Route: GAVAGE, Dose: 0, 50, 100 MG/KG IN CORN OIL 5 D/WK FOR 105 WK (STUDY DURATION: 105 WK), Dose: 0, 50, 100 MG/KG IN CORN OIL 5 D/WK FOR 105 WK (STUDY DURATION: 105 WK), Tumor Site: Type of Lesion: LIVER: HEPATOCELLULAR CARCINOMA, HEPATOCELLULAR ADENOMA OR CARCINOMA) was “equivocal” and the carcinogen call (Species: RAT, Strain/Sex: F344/FEMALE, Route: GAVAGE, Dose: 0, 40, 80 MG/KG IN CORN OIL 5 D/WK FOR 104 WK (STUDY DURATION: 105 WK), Dose: 0, 40, 80 MG/KG IN CORN OIL 5 D/WK FOR 104 WK (STUDY DURATION: 105 WK)) was “inactive; negative”. The carcinogen call (Species: RAT, Strain/Sex: F344/MALE, Route: GAVAGE, Dose: 0, 40, 80 MG/KG IN CORN OIL 5 D/WK FOR 104 WK (STUDY DURATION: 105 WK), Dose: 0, 40, 80 MG/KG IN CORN OIL 5 D/WK FOR 104 WK (STUDY DURATION: 105 WK)) was “inactive; negative”.

`CN(C)CCN(Cc1cccs1)c1ccccn1` was tested, and the carcinogen call (Species: RAT, Strain/Sex: F344/FEMALE, Route: ORAL, Dose: 0, 1 G/L IN DEIONIZED DRINKING WATER FOR 12 WK WITH NO TREATMENT DURING WK 5 AND 9 (STUDY DURATION: 121 WK)) was “inactive; negative”, the carcinogen call (Species: RAT, Strain/Sex: F344/FEMALE, Route: ORAL, Dose: 0, 125, 250 MG/KG IN DIET (TOTAL DOSE: 0; 7; 15 MG/KG) FOR 110 WK (STUDY DURATION: 133 WK), Dose: 0, 125, 250 MG/KG IN DIET (TOTAL DOSE: 0; 7; 15 MG/KG) FOR 110 WK (STUDY DURATION: 133 WK), Tumor Site: Type of Lesion: LIVER: CARCINOMA) was “active; positive” and the carcinogen call (Species: RAT, Strain/Sex: F344/MALE,FEMALE, Route: ORAL, Dose: 1000 PPM IN DIET FOR 64 WK (INITIAL DOSES AT 2000 PPM), Tumor Site: Type of Lesion: LIVER: HEPATOCELLULAR CARCINOMA, CHOLANGIOCARCINOMA) was “active; positive”. The carcinogen call (Species: RAT, Strain/Sex: F344/MALE, Route: ORAL, Dose: 0, 125, 250 MG/KG IN DIET (TOTAL DOSE: 0; 7; 14 G/KG) FOR 110 WK (STUDY DURATION: 133 WK), Dose: 0, 125, 250 MG/KG IN DIET (TOTAL DOSE: 0; 7; 14 G/KG) FOR 110 WK (STUDY DURATION: 133 WK), Tumor Site: Type of Lesion: LIVER: CARCINOMA) was “active; positive”, the carcinogen call (Species: RAT, Strain/Sex: SPRAGUE-DAWLEY/FEMALE, Route: ORAL, Dose: 0, 500, 1000 PPM IN DRINKING WATER 5D/WK FOR LIFE (STUDY DURATION: 576-709 D), Dose: 0, 500, 1000 PPM IN DRINKING WATER 5D/WK FOR LIFE (STUDY DURATION: 576-709 D), Tumor Site: Type of Lesion: LIVER: HEPATOCELLULAR CARCINOMA OR SARCOMA) was “active; positive” and the carcinogen call (Species: RAT, Strain/Sex: SPRAGUE-DAWLEY/MALE, Route: ORAL, Dose: 0, 500, 1000 PPM IN DRINKING WATER 5D/WK FOR LIFE (STUDY DURATION: 585-760 D), Dose: 0, 500, 1000 PPM IN DRINKING WATER 5D/WK FOR LIFE (STUDY DURATION: 585-760 D), Tumor Site: Type of Lesion: LIVER: HEPATOCELLULAR CARCINOMA) was “active; positive”.

For `CCCCCCOc1cc2c(c3ccc4ccccc4c13)CCC2=O`, the carcinogen call (Species: MOUSE, Strain/Sex: TO/MALE, FEMALE, Route: DERMAL, Dose: 0, 50 UG (10 µL OF A 0.5% W/V TOLUENE SOLUTION) 2/WK FOR 70 WK (STUDY DURATION: 70 WK)) was “inactive; negative”.

For `CC1(C)C(C=C(Cl)Cl)C1C(=O)OC(C#N)c1ccc(F)c(Oc2ccccc2)c1` (stereo not drawn), the carcinogen call (Species: Mouse, Strain/Sex: CD-1/Female (56/dose), Route: Oral, Dose: 0, 200, 750, 1,600 ppm (0; 38.4; 140/6; 309.7 mg/kg/day) of 94-95% pure cyfluthrin in feed for 18 mo, Dose: 0, 200, 750, 1,600 ppm (0; 38.4; 140/6; 309.7 mg/kg/day) of 94-95% pure cyfluthrin in feed for 18 mo) was “inactive; negative”, the carcinogen call (Species: Mouse, Strain/Sex: CD-1/Male (56/dose), Route: Oral, Dose: 0, 200, 750, 1,400 ppm (0; 31.9; 114.8; 232.7 mg/kg/day) of 94-95% pure cyfluthrin in feed for 18 mo, Dose: 0, 200, 750, 1,400 ppm (0; 31.9; 114.8; 232.7 mg/kg/day) of 94-95% pure cyfluthrin in feed for 18 mo) was “inactive; negative” and the carcinogen call (Species: Rat, Strain/Sex: Fisher 344/Female (55/dose), Route: Oral, Dose: 0, 50, 225, 450 ppm (3.3; 14.4; 28.3 mg/kg/day) of 93.9-95.1% pure cyfluthrin in feed for 2 yr, Dose: 0, 50, 225, 450 ppm (3.3; 14.4; 28.3 mg/kg/day) of 93.9-95.1% pure cyfluthrin in feed for 2 yr) was “inactive; negative”. The carcinogen call (Species: Rat, Strain/Sex: Fisher 344/Male (55/dose), Route: Oral, Dose: 0, 50, 225, 450 ppm (2.6; 11.6; 22.8 mg/kg/day) of 93.9-95.1% pure cyfluthrin in feed for 2 yr, Dose: 0, 50, 225, 450 ppm (2.6; 11.6; 22.8 mg/kg/day) of 93.9-95.1% pure cyfluthrin in feed for 2 yr) was “inactive; negative”.

For `Cc1c2ccccc2c(C)c2c3c(ccc12)[C@H](O)[C@@H](O)C=C3`, the carcinogen call (Species: RAT, Strain/Sex: SPRAGUE-DAWLEY/FEMALE (8/GROUP), Route: SUBCUTANEOUS, Dose: 0.1 UMOL 3X A WK FOR 20 DOSES (STUDY DURATION: 38 WK), Tumor Site: Type of Lesion: MAMMARY: ADENOCARCINOMA) was “active; positive (100%); no tumors at injection site” and the carcinogen call (Species: RAT, Strain/Sex: SPRAGUE-DAWLEY/FEMALE (8/GROUP), Route: SUBCUTANEOUS, Dose: 0.2 UMOL 3X A WK FOR 20 DOSES (STUDY DURATION: 30 WK), Tumor Site: Type of Lesion: MAMMARY: ADENOCARCINOMA) was “active; positive (100%); no tumors at injection site”.
